These molecules were tested against human SGLT2 (Homo sapiens (Human), UniProt P31639) (assay: hSGLT2 inhibitory activity, sodium-dependent 14C-AMG glucose transport assay in CHO cells expressing hSGLT2). Details: 14C-AMG uptake, CHO cells expressing hSGLT2, 37° C. for 2 h.
Assay type: cell-based
From the text: Human SGLT2 (hSGLT2) gene was amplified by PCR from cDNA-Human Adult Normal Tissue Kidney (Invitrogen, Carlsbad, Calif.). The hSGLT2 sequence was cloned into pcDNA3.1(+) for mammalian expression and were stably transfected into Chinese hamster ovary (CHO) cells. SGLT2-expressing clones were selected based on resistance to G418 antibiotic (Geneticin®, Invitrogen, Carlsbad, Calif.) and activity in the ^14C-α-methyl-D-glucopyranoside (^14C-AMG) uptake assay.
For sodium-dependent glucose transport assay, cells expressing hSGLT2 were seeded into a 96-well culture plate at a density of 5×10^4 cells/well in RPMI medium 1640 containing 10% fetal bovine serum. The cells were used 1 day after plating. They were incubated in pretreatment buffer (10 mM HEPES, 5 mM Tris, 140 mM choline chloride, 2 mM KCl, 1 mM CaCl2, and 1 mM MgCl2, pH 7.4) at 37° C. for 10 min. They were then incubated in uptake buffer (10 mM HEPES, 5 mM Tris, 140 mM NaCl, 2 mM KCl, 1 mM CaCl2, 1 mM MgCl2, and 1 mM ^14C-nonlabeled AMG pH 7.4) containing ^14C-labeled (8 uM) and inhibitor or dimethyl sulfoxide (DMSO) vehicle at 37° C. for 2 h. Cells were washed twice with washing buffer (pretreatment buffer containing 10 mM AMG at room temperature) and then the radioactivity was measured using a liquid scintillation counter.

human SGLT2, sequence (P31639 whole entry): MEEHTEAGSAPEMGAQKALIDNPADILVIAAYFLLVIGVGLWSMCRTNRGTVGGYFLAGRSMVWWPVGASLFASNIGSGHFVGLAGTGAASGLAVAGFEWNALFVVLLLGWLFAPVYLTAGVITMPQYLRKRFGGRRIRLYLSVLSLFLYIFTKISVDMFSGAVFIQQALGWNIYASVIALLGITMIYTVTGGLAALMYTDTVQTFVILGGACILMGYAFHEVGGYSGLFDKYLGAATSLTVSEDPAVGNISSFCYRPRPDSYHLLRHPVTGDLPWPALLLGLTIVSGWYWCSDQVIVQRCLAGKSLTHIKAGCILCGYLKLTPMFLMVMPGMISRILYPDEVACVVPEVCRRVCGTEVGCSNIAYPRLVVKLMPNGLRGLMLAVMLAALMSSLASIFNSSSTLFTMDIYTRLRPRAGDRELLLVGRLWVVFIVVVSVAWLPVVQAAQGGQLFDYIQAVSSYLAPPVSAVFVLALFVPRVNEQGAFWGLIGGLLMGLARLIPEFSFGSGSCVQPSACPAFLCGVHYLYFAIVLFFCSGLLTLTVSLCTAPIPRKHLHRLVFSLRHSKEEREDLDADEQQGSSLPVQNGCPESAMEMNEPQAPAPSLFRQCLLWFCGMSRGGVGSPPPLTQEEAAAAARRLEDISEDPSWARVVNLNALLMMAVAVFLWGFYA

IC50 | Compound
45.3 nM | OC[C@H]1OC(c2ccc(Cl)c(Cc3nnc(-c4cccnc4)s3)c2)[C@H](O)[C@@H](O)[C@@H]1O (stereo partly drawn) [Example 21, (3R,4R,5S,6R)-2-(4-Chloro-3-((5-(pyridin-3-yl)-1,3,4-thiadiazol-2-yl)methyl)phenyl)-6-(hydroxymethyl)-tetrahydro-2H-pyran-3,4,5-triol]
103 nM | Cc1ccc(-c2nnc(Cc3cc(C4O[C@H](CO)[C@@H](O)[C@H](O)[C@H]4O)ccc3Cl)s2)cc1 (stereo partly drawn) [Example 22, (3R,4R,5S,6R)-2-(4-chloro-3-((5-p-tolyl-1,3,4-thiadiazol-2-yl)methyl)phenyl)-6-(hydroxymethyl)-tetrahydro-2H-pyran-3,4,5-triol]
24.9 nM | CCCc1ccc(-c2nnc(Cc3cc(C4O[C@H](CO)[C@@H](O)[C@H](O)[C@H]4O)ccc3Cl)s2)cc1 (stereo partly drawn) [Example 23, (3R,4R,5S,6R)-2-(4-Chloro-3-((5-(4-propylphenyl)-1,3,4-thiadiazol-2-yl)methyl)phenyl)-6-(hydroxymethyl)-tetrahydro-2H-pyran-3,4,5-triol]
542 nM | OC[C@H]1OC(c2ccc(Cl)c(Cc3nnc(C4CCCCC4)s3)c2)[C@H](O)[C@@H](O)[C@@H]1O (stereo partly drawn) [Example 24, (3R,4R,5S,6R)-2-(4-Chloro-3-((5-cyclohexyl-1,3,4-thiadiazol-2-yl)methyl)phenyl)-6-(hydroxymethyl)-tetrahydro-2H-pyran-3,4,5-triol]
460 nM | CC1CCC(Cc2nnc(Cc3cc(C4O[C@H](CO)[C@@H](O)[C@H](O)[C@H]4O)ccc3Cl)s2)CC1 (stereo partly drawn) [Example 25, (3R,4R,5S,6R)-2-(4-Chloro-3-((5-((4-methylcyclohexyl)methyl)-1,3,4-thiadiazol-2-yl)methyl)phenyl)-6-(hydroxymethyl)-tetrahydro-2H-pyran-3,4,5-triol]
548 nM | CC(Cc1nnc(Cc2cc(C3O[C@H](CO)[C@@H](O)[C@H](O)[C@H]3O)ccc2Cl)s1)c1ccccc1 (stereo partly drawn) [Example 26, (3R,4R,5S,6R)-2-(4-Chloro-3-((5-(2-phenylpropyl)-1,3,4-thiadiazol-2-yl)methyl)phenyl)-6-(hydroxymethyl)-tetrahydro-2H-pyran-3,4,5-triol]
730 nM | OC[C@H]1OC(c2ccc(Cl)c(Cc3nnc(/C=C/c4ccccc4)s3)c2)[C@H](O)[C@@H](O)[C@@H]1O (stereo partly drawn) [Example 27, (3R,4R,5S,6R,E)-2-(4-Chloro-3-((5-styryl-1,3,4-thiadiazol-2-yl)methyl)phenyl)-6-(hydroxymethyl)-tetrahydro-2H-pyran-3,4,5-triol]
16.6 nM | OC[C@H]1O[C@@H](c2ccc(Cl)c(Cc3nnc(-c4ccccc4)s3)c2)[C@H](O)[C@@H](O)[C@@H]1O [Example 28, (2S,3R,4R,5S,6R)-2-(4-Chloro-3-((5-phenyl-1,3,4-thiadiazol-2-yl)methyl)phenyl)-6-(hydroxymethyl)-tetrahydro-2H-pyran-3,4,5-triol]
126 nM | OC[C@H]1O[C@@H](c2ccc(Cl)c(Cc3nnc(-c4ccc(Cl)cc4)s3)c2)[C@H](O)[C@@H](O)[C@@H]1O [Example 29, (2S,3R,4R,5S,6R)-2-(4-chloro-3-((5-(4-Chlorophenyl)-1,3,4-thiadiazol-2-yl)methyl)phenyl)-6-(hydroxymethyl)-tetrahydro-2H-pyran-3,4,5-triol]
249 nM | OC[C@H]1O[C@@H](c2ccc(Cl)c(Cc3nnc(-c4cc5ccccc5o4)s3)c2)[C@H](O)[C@@H](O)[C@@H]1O [Example 30, (2S,3R,4R,5S,6R)-2-(3-((5-(Benzofuran-2-yl)-1,3,4-thiadiazol-2-yl)methyl)-4-chlorophenyl)-6-(hydroxymethyl)-tetrahydro-2H-pyran-3,4,5-triol]
214 nM | CCCc1nnc(Cc2cc([C@@H]3O[C@H](CO)[C@@H](O)[C@H](O)[C@H]3O)ccc2Cl)s1 [Example 31, (2S,3R,4R,5S,6R)-2-(4-Chloro-3-((5-propyl-1,3,4-thiadiazol-2-yl)methyl)phenyl)-6-(hydroxymethyl)-tetrahydro-2H-pyran-3,4,5-triol]
379 nM | CCCCc1nnc(Cc2cc([C@@H]3O[C@H](CO)[C@@H](O)[C@H](O)[C@H]3O)ccc2Cl)s1 [Example 32, (2S,3R,4R,5S,6R)-2-(3-((5-Butyl-1,3,4-thiadiazol-2-yl)methyl)-4-chlorophenyl)-6-(hydroxymethyl)-tetrahydro-2H-pyran-3,4,5-triol]
353 nM | CCCCCc1nnc(Cc2cc([C@@H]3O[C@H](CO)[C@@H](O)[C@H](O)[C@H]3O)ccc2Cl)s1 [Example 33, (2S,3R,4R,5S,6R)-2-(4-Chloro-3-((5-pentyl-1,3,4-thiadiazol-2-yl)methyl)phenyl)-6-(hydroxymethyl)-tetrahydro-2H-pyran-3,4,5-triol]
122 nM | CCCCCCCc1nnc(Cc2cc([C@@H]3O[C@H](CO)[C@@H](O)[C@H](O)[C@H]3O)ccc2Cl)s1 [Example 34, (2S,3R,4R,5S,6R)-2-(4-Chloro-3-((5-heptyl-1,3,4-thiadiazol-2-yl)methyl)phenyl)-6-(hydroxymethyl)-tetrahydro-2H-pyran-3,4,5-triol]
10.6 nM | OC[C@H]1O[C@@H](c2ccc(Cl)c(Cc3nnc(-c4ccc(-c5ccccc5)o4)s3)c2)[C@H](O)[C@@H](O)[C@@H]1O [Example 37, (2S,3R,4R,5S,6R)-2-(4-Chloro-3-((5-(5-phenylfuran-2-yl)-1,3,4-thiadiazol-2-yl)methyl)phenyl)-6-(hydroxymethyl)-tetrahydro-2H-pyran-3,4,5-triol]
155 nM | OC[C@H]1O[C@@H](c2ccc(Cl)c(Cc3nnc(C(F)(F)F)s3)c2)[C@H](O)[C@@H](O)[C@@H]1O [Example 38, (2S,3R,4R,5S,6R)-2-(4-Chloro-3-((5-(trifluoromethyl)-1,3,4-thiadiazol-2-yl)methyl)phenyl)-6-(hydroxymethyl)tetrahydro-2H-pyran-3,4,5-triol]
758 nM | OC[C@H]1O[C@@H](c2ccc(Cl)c(Cc3nnc(CC(F)(F)F)s3)c2)[C@H](O)[C@@H](O)[C@@H]1O [Example 39, (2S,3R,4R,5S,6R)-2-(4-Chloro-3-((5-(2,2,2-trifluoroethyl)-1,3,4-thiadiazol-2-yl)methyl)phenyl)-6-(hydroxymethyl)tetrahydro-2H-pyran-3,4,5-triol]
10.9 nM | CSc1nnc(Cc2cc([C@@H]3O[C@H](CO)[C@@H](O)[C@H](O)[C@H]3O)ccc2Cl)s1 [Example 40, (2S,3R,4R,5S,6R)-2-(4-Chloro-3-((5-(methylthio)-1,3,4-thiadiazol-2-yl)methyl)phenyl)-6-(hydroxymethyl)-tetrahydro-2H-pyran-3,4,5-triol]
146 nM | COc1nnc(Cc2cc([C@@H]3O[C@H](CO)[C@@H](O)[C@H](O)[C@H]3O)ccc2Cl)s1 [Example 41, (2S,3R,4R,5S,6R)-2-(4-Chloro-3-((5-methoxy-1,3,4-thiadiazol-2-yl)methyl)phenyl)-6-(hydroxymethyl)-tetrahydro-2H-pyran-3,4,5-triol]
4.06 nM | OC[C@H]1O[C@@H](c2ccc(Cl)c(Cc3nnc(-c4cnccn4)s3)c2)[C@H](O)[C@@H](O)[C@@H]1O [Example 42, (2S,3R,4R,5S,6R)-2-(4-Chloro-3-((5-(pyrazin-2-yl)-1,3,4-thiadiazol-2-yl)methyl)phenyl)-6-(hydroxymethyl)-tetrahydro-2H-pyran-3,4,5-triol]
190 nM | OC[C@H]1O[C@@H](c2ccc(Cl)c(Cc3nnc(-c4ccnnc4)s3)c2)[C@H](O)[C@@H](O)[C@@H]1O [Example 43, (2S,3R,4R,5S,6R)-2-(4-Chloro-3-((5-(pyridazin-4-yl)-1,3,4-thiadiazol-2-yl)methyl)phenyl)-6-(hydroxymethyl)-tetrahydro-2H-pyran-3,4,5-triol]
638 nM | Cc1cccc(-c2nnc(Cc3cc([C@@H]4O[C@H](CO)[C@@H](O)[C@H](O)[C@H]4O)ccc3Cl)s2)n1 [Example 44, (2S,3R,4R,5S,6R)-2-(4-Chloro-3-((5-(6-methylpyridin-2-yl)-1,3,4-thiadiazol-2-yl)methyl)phenyl)-6-(hydroxymethyl)-tetrahydro-2H-pyran-3,4,5-triol]
36.4 nM | Cc1cc(-c2nnc(Cc3cc([C@@H]4O[C@H](CO)[C@@H](O)[C@H](O)[C@H]4O)ccc3Cl)s2)ccn1 [Example 45, (2S,3R,4R,5S,6R)-2-(4-Chloro-3-((5-(2-methylpyridin-4-yl)-1,3,4-thiadiazol-2-yl)methyl)phenyl)-6-(hydroxymethyl)-tetrahydro-2H-pyran-3,4,5-triol]
201 nM | COC(=O)c1ccc(Cc2cc([C@@H]3O[C@H](CO)[C@@H](O)[C@H](O)[C@H]3O)ccc2Cl)nn1 [Example 49, Methyl 6-(2-chloro-5-((2S,3R,4R,5S,6R)-3,4,5-trihydroxy-6-(hydroxymethyl)-tetrahydro-2H-pyran-2-yl)benzyl)pyridazine-3-carboxylate]
17 nM | CCCCCOc1ccc(Cc2cc([C@@H]3O[C@H](CO)[C@@H](O)[C@H](O)[C@H]3O)ccc2Cl)nn1 [Example 54, (2S,3R,4R,5S,6R)-2-(4-Chloro-3-((6-(pentyloxy)pyridazin-3-yl)methyl)phenyl)-6-(hydroxymethyl)-tetrahydro-2H-pyran-3,4,5-triol]
50.5 nM | CCCCCCCCOc1ccc(Cc2cc([C@@H]3O[C@H](CO)[C@@H](O)[C@H](O)[C@H]3O)ccc2Cl)nn1 [Example 56, (2S,3R,4R,5S,6R)-2-(4-Chloro-3-((6-(octyloxy)pyridazin-3-yl)methyl)phenyl)-6-(hydroxymethyl)-tetrahydro-2H-pyran-3,4,5-triol]

Source: patent US8541380B2, “C-aryl glucoside SGLT2 inhibitors and pharmaceutical compositions comprising same” (Green Cross Corporation, priority 2009, dated 2013)
